In patent US11919965B2, “Methods of treating multiple myeloma with bispecific anti-BCMA x anti-CD3 antibodies” (Regeneron Pharmaceuticals, Inc., priority 2019, dated 2024):
Where two headings read alike, the source gives them in different places.

Key:
[1] = tested on: BCMA-expressing NCI-H929 multiple myeloma tumors; assay: Xenogenic tumor model, NCI-H929 + human PBMC s.c. in NSG mice, dose response, treatment from implantation (Example 11); format: in vivo, mouse
Description: To determine the in vivo efficacy of anti-BCMA×anti-CD3 bispecific antibodies (Abs), a xenogenic tumor study was performed. Immunodeficient NOD.Cg-Prkdc^ScidII2rg^tm1Wjl/SzJ (NSG) mice were subcutaneously implanted with a mixture of 10×10^6 BCMA-expressing NCI-H929 human multiple myeloma tumor cells and 0.5×10^6 human peripheral blood mononuclear cells (PBMC) isolated from a normal, healthy donor. […] The mice were administered these Abs twice per week for a total of seven doses, and tumor growth was assessed over 60 days. While BCMA+NCI-H929 tumors grew similarly in the vehicle- and CD3-binding control-treated mice, both anti-BCMA×anti-CD3 Abs that were tested prevented the growth of tumors in a dose-dependent manner in vivo.
(§1) Implantation and measurement of xenogenic tumors: NSG mice were subcutaneously implanted with a mixture of 10×10^6 BCMA-expressing NCI-H929 multiple myeloma cells and 0.5×10^6 PBMC derived from a normal, healthy donor. […] The mice were administered Abs twice per week for a total of seven doses. Tumor growth was measured with calipers twice per week for the duration of the experiment.
(§2) Calculation of xenogenic tumor growth and inhibition: In order to determine tumor volume by external caliper, the greatest longitudinal diameter (length in mm) and the greatest transverse diameter (width in mm) were determined. Tumor volumes based on caliper measurements were calculated by the formula: Volume (mm^3)=(length× width^2)/2.

[2] = tested on: established BCMA-expressing NCI-H929 multiple myeloma tumors; assay: Xenogenic tumor model, established NCI-H929 tumors + human PBMC in NSG mice, treatment from day 5 (Example 12); format: in vivo, mouse; details: for Average Tumor Size (mm3) ± SEM on Day 5: day of first dose
Description: To determine the in vivo efficacy of anti-BCMA×anti-CD3 bispecific antibodies (Abs), a xenogenic tumor study was performed. Immunodeficient NOD.Cg-Prkdc^scidII2rg^tm1Wjl/SzJ (NSG) mice were subcutaneously implanted with a mixture of 10×10^6 BCMA-expressing NCI-H929 human multiple myeloma tumor cells and 0.5×10^6 human peripheral blood mononuclear cells (PBMC) isolated from a normal, healthy donor. The tumors were allowed to grow and establish for 5 days until they were approximately 70 mm^3 in size. […] The mice were administered these Abs twice per week for a total of seven doses, and tumor growth was assessed over 55 days.
as §1, with “donor. The tumors were allowed to grow and establish for 5 days until they were approximately 70 mm^3 in size.” for “donor.”
as §2

[3] = tested on: primary multiple myeloma blast cells; assay: FACS cytotoxicity assay, autologous T cell-mediated killing of primary multiple myeloma blast cells; format: cell-based, human; details: for EC50: read-out: MM Lysis EC50
Description: In order to monitor the specific killing of multiple myeloma cells by flow cytometry, bone marrow mononuclear cells (BMMC) from multiple myeloma patients were plated on human stromal cells (HS5) and rested overnight at 37 C. Separately, matching patient peripheral blood mononuclear cells (PBMC) were thawed and cultured in supplemented RPMI media at 1×10^6 cells/mL overnight at 37° C. in order to enrich for lymphocytes by depleting adherent cells. The next day, BMMC were co-incubated with adherent cell-depleted naïve PBMC on stromal cells (HS5) and a serial 10× dilution of BCMA×CD3 bispecific or 1-arm CD3 isotype control (starting concentration 66.7 nM) at 37° C. Cells were removed from cell culture plates at day 3, 4 or 7 and analyzed by FACS. For the assessment of specificity of killing, multiple myeloma cells were gated as single, live, CD90 negative (to exclude stromal cells), CD2 negative, CD56 positive. CD45 was low on multiple myeloma cells in most samples except MM455. Percent of live target cells was reported for the calculation of adjusted survival as follows: Adjusted survival=(R1/R2)*100, where R1=% live target cells in the presence of antibody, and R2=% live target cells in the absence of test antibody.
T cells were gated as CD2 positive, CD56 negative and either CD4 or CD8 positive. T cell activation was reported as the percent of CD25+CD4 or CD8 T cells out of total CD4 or CD8 T cells.

Q: Which results are given for “REGN5458: anti-BCMA×anti-CD3 bispecific antibody: mAb21581 BCMA heavy chain, mAb7221G CD3 heavy chain and common light chain; SEQ ID NOs 126, 127, 129”?
A: Average Tumor Size (mm3) ± SEM on Day 7 ([1]; 0.04 mg/kg): 30.8 ± 5.5 mm3; Average Tumor Size (mm3) ± SEM on Day 12 ([1]; 0.04 mg/kg): 71.5 ± 22.4 mm3; Average Tumor Size (mm3) ± SEM on Day 15 ([1]; 0.04 mg/kg): 133.4 ± 50.9 mm3; Average Tumor Size (mm3) ± SEM on Day 19 ([1]; 0.04 mg/kg): 413.7 ± 162.7 mm3; Average Tumor Size (mm3) ± SEM on Day 22 ([1]; 0.04 mg/kg): 669.4 ± 248.5 mm3; Average Tumor Size (mm3) ± SEM on Day 26 ([1]; 0.04 mg/kg): 1167.0 ± 431.7 mm3; Average Tumor Size (mm3) ± SEM on Day 29 ([1]; 0.04 mg/kg): 1781.8 ± 620.7 mm3; Average Tumor Size (mm3) ± SEM on Day 4 ([1]; 0.4 mg/kg): 31.9 ± 2.0 mm3; Average Tumor Size (mm3) ± SEM on Day 7 ([1]; 0.4 mg/kg): 11.3 ± 3.0 mm3; Average Tumor Size (mm3) ± SEM on Day 15 ([1]; 0.4 mg/kg): 0 ± 0 mm3; Average Tumor Size (mm3) ± SEM on Day 19 ([1]; 0.4 mg/kg): 0 ± 0 mm3; Average Tumor Size (mm3) ± SEM on Day 22 ([1]; 0.4 mg/kg): 0 ± 0 mm3; Average Tumor Size (mm3) ± SEM on Day 26 ([1]; 0.4 mg/kg): 0 ± 0 mm3; Average Tumor Size (mm3) ± SEM on Day 29 ([1]; 0.4 mg/kg): 0 ± 0 mm3; Average Tumor Size (mm3) ± SEM on Day 34 ([1]; 0.4 mg/kg): 0 ± 0 mm3; Average Tumor Size (mm3) ± SEM on Day 39 ([1]; 0.4 mg/kg): 0 ± 0 mm3; Average Tumor Size (mm3) ± SEM on Day 42 ([1]; 0.4 mg/kg): 0 ± 0 mm3; Average Tumor Size (mm3) ± SEM on Day 46 ([1]; 0.4 mg/kg): 0 ± 0 mm3; Average Tumor Size (mm3) ± SEM on Day 55 ([1]; 0.4 mg/kg): 0 ± 0 mm3; Average Tumor Size (mm3) ± SEM on Day 60 ([1]; 0.4 mg/kg): 0 ± 0 mm3; Average Tumor Size (mm3) ± SEM on Day 4 ([1]; 4 mg/kg): 18.0 ± 1.2 mm3; Average Tumor Size (mm3) ± SEM on Day 12 ([1]; 4 mg/kg): 0 ± 0 mm3; Average Tumor Size (mm3) ± SEM on Day 15 ([1]; 4 mg/kg): 0 ± 0 mm3; Average Tumor Size (mm3) ± SEM on Day 19 ([1]; 4 mg/kg): 0 ± 0 mm3; Average Tumor Size (mm3) ± SEM on Day 22 ([1]; 4 mg/kg): 0 ± 0 mm3; Average Tumor Size (mm3) ± SEM on Day 26 ([1]; 4 mg/kg): 0 ± 0 mm3; Average Tumor Size (mm3) ± SEM on Day 29 ([1]; 4 mg/kg): 0 ± 0 mm3; Average Tumor Size (mm3) ± SEM on Day 34 ([1]; 4 mg/kg): 0 ± 0 mm3; Average Tumor Size (mm3) ± SEM on Day 39 ([1]; 4 mg/kg): 0 ± 0 mm3; Average Tumor Size (mm3) ± SEM on Day 42 ([1]; 4 mg/kg): 0 ± 0 mm3; Average Tumor Size (mm3) ± SEM on Day 46 ([1]; 4 mg/kg): 0 ± 0 mm3; Average Tumor Size (mm3) ± SEM on Day 55 ([1]; 4 mg/kg): 0 ± 0 mm3; Average Tumor Size (mm3) ± SEM on Day 60 ([1]; 4 mg/kg): 0 ± 0 mm3; Average Tumor Size (mm3) ± SEM on Day 8 ([2]; 0.04 mg/kg): 130.3 ± 16.7 mm3; Average Tumor Size (mm3) ± SEM on Day 15 ([2]; 0.04 mg/kg): 1031.2 ± 164.3 mm3; Average Tumor Size (mm3) ± SEM on Day 19 ([2]; 0.04 mg/kg): 2467.5 ± 370.0 mm3; Average Tumor Size (mm3) ± SEM on Day 22 ([2]; 0.04 mg/kg): 3745.7 ± 541.2 mm3; Average Tumor Size (mm3) ± SEM on Day 27 ([2]; 0.04 mg/kg): 1589.1 ± 0 mm3; Average Tumor Size (mm3) ± SEM on Day 30 ([2]; 0.04 mg/kg): 2886.5 ± 0 mm3; Average Tumor Size (mm3) ± SEM on Day 5 ([2]; 0.04 mg/kg): 58.1 ± 5.6 mm3; Average Tumor Size (mm3) ± SEM on Day 8 ([2]; 0.4 mg/kg): 120.3 ± 16.3 mm3; Average Tumor Size (mm3) ± SEM on Day 12 ([2]; 0.4 mg/kg): 262.7 ± 61.6 mm3; Average Tumor Size (mm3) ± SEM on Day 15 ([2]; 0.4 mg/kg): 476.2 ± 133.5 mm3; Average Tumor Size (mm3) ± SEM on Day 19 ([2]; 0.4 mg/kg): 1347.5 ± 334.7 mm3; Average Tumor Size (mm3) ± SEM on Day 22 ([2]; 0.4 mg/kg): 2068.5 ± 465.0 mm3; Average Tumor Size (mm3) ± SEM on Day 27 ([2]; 0.4 mg/kg): 3463.9 ± 1025.0 mm3; Average Tumor Size (mm3) ± SEM on Day 30 ([2]; 0.4 mg/kg): 2144.2 ± 2144.2 mm3; Average Tumor Size (mm3) ± SEM on Day 35 ([2]; 0.4 mg/kg): 0 ± 0 mm3; Average Tumor Size (mm3) ± SEM on Day 40 ([2]; 0.4 mg/kg): 0 ± 0 mm3; Average Tumor Size (mm3) ± SEM on Day 55 ([2]; 0.4 mg/kg): 0 ± 0 mm3; Average Tumor Size (mm3) ± SEM on Day 5 ([2]; 0.4 mg/kg): 69.3 ± 7.3 mm3; Average Tumor Size (mm3) ± SEM on Day 8 ([2]; 4 mg/kg): 64.7 ± 16.4 mm3; Average Tumor Size (mm3) ± SEM on Day 12 ([2]; 4 mg/kg): 19.5 ± 10.9 mm3; Average Tumor Size (mm3) ± SEM on Day 15 ([2]; 4 mg/kg): 25.6 ± 19.2 mm3; Average Tumor Size (mm3) ± SEM on Day 19 ([2]; 4 mg/kg): 40.6 ± 32.8 mm3; Average Tumor Size (mm3) ± SEM on Day 22 ([2]; 4 mg/kg): 78.3 ± 60.8 mm3; Average Tumor Size (mm3) ± SEM on Day 30 ([2]; 4 mg/kg): 411.3 ± 307.2 mm3; Average Tumor Size (mm3) ± SEM on Day 35 ([2]; 4 mg/kg): 633.5 ± 473.5 mm3; Average Tumor Size (mm3) ± SEM on Day 40 ([2]; 4 mg/kg): 369.5 ± 369.5 mm3; Average Tumor Size (mm3) ± SEM on Day 55 ([2]; 4 mg/kg): 0 ± 0 mm3; Average Tumor Size (mm3) ± SEM on Day 5 ([2]; 4 mg/kg): 71.9 ± 10.3 mm3; EC50 ([3]; Sample MM2, E:T 1.4, 7 days): 0.747 nM; % MM lysis at 66 nM ([3]; Sample MM2, newly diagnosed, E:T 1.4, 7 days): 88%; % MM lysis at 66 nM ([3]; Sample MM369, newly diagnosed, E:T 0.3, 3 days): 96%; EC50 ([3]; Sample MM453, E:T 2.4, 3 days): 0.0989 nM; % MM lysis at 66 nM ([3]; Sample MM453, newly diagnosed, E:T 2.4, 3 days): 82%; EC50 ([3]; Sample MM455, E:T 0.4, 3 days): 3.67 nM; % MM lysis at 66 nM ([3]; Sample MM455, progression, treated, E:T 0.4, 3 days): 63%
